The assay relates to any cardiac event, including ischemic stroke, or death. Kind of assay: Bayesian hierarchical (Cox proportional hazards, Models 1 and 2) analysis of five secondary prevention studies (CARE, LIPID, PLAC I, PLAC II, REGRESS) for synergy between pravastatin and aspirin. It counts as in vivo, human. The settings on record: for posterior mean of the coefficient γT: Model 1, logarithmic scale, relative to placebo (γplacebo=0). How it is done:
In this study 40 mg pravastatin and 81 mg aspirin and higher were employed.
The primary endpoint was (i) any cardiac event, including ischemic stroke, or death. Secondary endpoints were individual components of the primary endpoint: (ii) any cardiac event, excluding stroke, (iii) any myocardial infarction, (iv) ischemic stroke, and (v) death. Analyses of these secondary endpoints as opposed to the primary endpoint are subject to greater uncertainty because the numbers of events are smaller. Therefore, conclusions for the secondary endpoints are likely to be less compelling.
The five studies available for addressing the synergy between pravastatin and aspirin for secondary prevention are listed and described in Table 1. Patients in all five studies were randomized to pravastatin vs placebo. All patients in all five studies are included in the primary analysis.
These may be due to random variability or to differences in patient populations. To take these differences into account, the role of patient characteristics was modeled, namely, the following covariates were considered: age, gender, smoking status, existence of coronary artery disease, and baseline values of LDL and HDL cholesterols, triglycerides, and diastolic and systolic blood pressures. In addition, the studies were conducted under different circumstances and by different investigators and even in different countries. Therefore, there may be additional study-specific differences that cannot be explained by differences in measured patient covariates. To allow for the possibility that treatment effects depend on study even after accounting for patient characteristics, Bayesian hierarchical modeling was used in which the study is one level of experimental unit and patient-within-study is a second level.
A brief introduction to Bayesian hierarchical modeling and a description of standard Bayesian hierarchical Cox proportional hazards model (Model 1) are set out below. An extension of the standard model that allows for treatment-specific time-varying hazards (Model 2) is also described. In addition, the sensitivity of the conclusions to the prior distribution of the parameter that regulates the extent of pooling of the various studies is addressed.
Model 1: Bayesian Hierarchical Analysis Using Cox Proportional Hazards Model
The Cox proportional hazards model takes hazard H to be of the form
where Z is the set of patient-specific covariates (listed above), β is the vector of regression coefficients and λ0(t) is the baseline hazard function. Treatment and study are considered separately from covariates Z, as follows: […]
Assessing the probability of synergy is straightforward in Model 1 when using Markov chain Monte Carlo (MCMC) methods. […] During each iteration of MCMC, this synergy condition is assessed. […]

Take `CC[C@H](C)C(=O)O[C@H]1C[C@H](O)C=C2C=C[C@H](C)[C@H](CC[C@@H](O)C[C@@H](O)CC(=O)O)[C@H]21` [pravastatin]: for the setting “primary endpoint (All events)”, the “posterior mean of the coefficient γT” value is −0.0985.

Turning to `CC(=O)Oc1ccccc1C(=O)O` [aspirin, acetylsalicylic acid], where the note is “primary endpoint (All events)”, the “posterior mean of the coefficient γT” value is given as −0.0022. Further, the “performance in comparison with placebo alone” value (primary endpoint (All events), Models 1 and 2) is “essentially the same”. Besides, the “estimated event rate (hazard) compared among treatment arms” value (stroke, Model 2, year 1) is “lowest estimated event rate”.

Values taken from US20030013688A1, “Synergistic combination of pravastatin and aspirin and method” (priority 2001, published 2003).
